We go through 26 compounds from US8686011B2, “Inhibitors of 11-β-hydroxy steroid dehydrogenase type 1” (Amgen Inc., priority 2004, dated 2014).

Each structure is given as a SMILES string.

T1 sequence (P28845 whole entry): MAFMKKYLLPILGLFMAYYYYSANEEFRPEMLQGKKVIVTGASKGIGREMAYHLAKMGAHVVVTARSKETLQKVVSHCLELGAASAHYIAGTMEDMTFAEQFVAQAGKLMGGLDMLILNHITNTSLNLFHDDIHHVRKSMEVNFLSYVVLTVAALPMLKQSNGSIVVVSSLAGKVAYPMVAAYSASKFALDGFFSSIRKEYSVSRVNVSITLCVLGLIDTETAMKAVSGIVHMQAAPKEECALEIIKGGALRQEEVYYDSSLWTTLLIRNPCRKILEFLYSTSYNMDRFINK

The first assay concerns intraocular pressure.
Assay: not given
To be noted: ingestion, normal subjects; cited from earlier work.
Regarding `CC1(C)[C@@H](OC(=O)CCC(=O)O)CC[C@]2(C)[C@H]3C(=O)C=C4[C@@H]5C[C@@](C)(C(=O)O)CC[C@]5(C)CC[C@@]4(C)[C@]3(C)CC[C@@H]12` [carbenoxolone], the “reduction of intraocular pressure” value is recorded as 20%.

The next assay has as its target T1, 11β-HSD1 (human enzyme) (Homo sapiens, UniProt P28845).
T1 construct: made in house
As to the kind of experiment: Enzyme Assay (SPA, 3H-cortisone, purified HSD-1 enzyme prep), human enzyme. Format: biochemical. To be noted: species of enzyme not given.
Turning to `O=C1N=C(Nc2ccccc2Cl)SC1C1CCCCC1` (centres unmarked) [2-(2-chlorophenylamino)-5-cyclohexylthiazol-4(5H)-one], the IC50 is less than 20 nM.
Compound `O=C1N=C(Nc2ccccc2Cl)SC1C1CCCC1` (centres unmarked) [2-(2-chlorophenylamino)-5-cyclopentylthiazol-4(5H)-one] showed a half-inhibitory concentration (IC50) of less than 20 nM.
In turn, `CC1(c2ccncc2)SC(Nc2ccccc2Cl)=NC1=O` (centres unmarked) [2-(2-chlorophenylamino)-5-methyl-5-(pyridin-4-yl)thiazol-4(5H)-one] came in with an IC50 of less than 20 nM.
Take `CC1(C2CCOCC2)SC(Nc2ccccc2Cl)=NC1=O` (centres unmarked) [2-(2-chlorophenylamino)-5-methyl-5-(tetrahydro-2H-pyran-4-yl)thiazol-4(5H)-one]: the half-maximal inhibitory concentration (IC50) is less than 20 nM.
Same read-out and setting: the result for `O=C1N=C(Nc2ccccc2F)SC1[C@H]1CCOC1` (stereo partly drawn) [2-(2-fluorophenylamino)-5-((S)-tetrahydrofuran-3-yl)thiazol-4(5H)-one] reads less than 20 nM.
On to `CC1(CC(F)(F)F)SC(N[C@@H]2C[C@H]3CC[C@@H]2C3)=NC1=O` (stereo partly drawn) [2-((1R,2R,4S)-bicyclo[2.2.1]heptan-2-ylamino)-5-methyl-5-(2,2,2-trifluoroethyl)thiazol-4(5H)-one], for which the half-maximal inhibitory concentration (IC50) is less than 20 nM.
The same measure, in the same setting: to `CCCC1(C)SC(N[C@@H]2C[C@H]3CC[C@@H]2C3)=NC1=O` (stereo partly drawn) [2-((1R,2R,4S)-bicyclo[2.2.1]heptan-2-ylamino)-5-methyl-5-propylthiazol-4(5H)-one] belongs less than 20 nM.
The compound `CC(C)C1SC(Nc2ccccc2Cl)=NC1=O` (centres unmarked) [2-((2-chlorophenyl)amino)-5-(1-methylethyl)-1,3-thiazol-4(5H)-one] showed a half-inhibitory concentration (IC50) of less than 20 nM.
Same read-out and setting: to `CC1(c2ccccc2)SC(Nc2ccccc2Cl)=NC1=O` (centres unmarked) [2-((2-chlorophenyl)amino)-5-methyl-5-phenyl-1,3-thiazol-4(5H)-one] belongs less than 20 nM; to `O=C1N=C(Nc2ccccc2F)SC12CCCC2` [2-((2-fluorophenyl)amino)-1-thia-3-azaspiro[4.4]non-2-en-4-one], less than 20 nM; to `Cc1c(Cl)cccc1NC1=NC(=O)C(C(C)C)S1` (centres unmarked) [2-((3-chloro-2-methylphenyl)amino)-5-(1-methylethyl)-1,3-thiazol-4(5H)-one], less than 20 nM.
For the compound `CC(C)C1(C)SC(NC23CC4CC(CC(F)(C4)C2)C3)=NC1=O` (centres unmarked) [2-((3-fluorotricyclo[3.3.1.1˜3,7˜]dec-1-yl)amino)-5-methyl-5-(1-methylethyl)-1,3-thiazol-4(5H)-one], the IC50 is less than 20 nM.
For the compound `Cc1ccc(F)cc1NC1=NC(=O)C(C(C)C)S1` (centres unmarked) [2-((5-fluoro-2-methylphenyl)amino)-5-(1-methylethyl)-1,3-thiazol-4(5H)-one], the IC50 was less than 20 nM.
Still for that read-out and setting: the result for `CC(C)C1(C)SC(N[C@H](C)c2ccc(F)cc2)=NC1=O` (stereo partly drawn) [2-((R)-1-(4-fluorophenyl)ethylamino)-5-isopropyl-5-methylthiazol-4(5H)-one] reads less than 20 nM.
Still for that read-out and setting: to `C[C@H](NC1=NC(=O)C(C)(c2ccncc2)S1)c1ccccc1F` (stereo partly drawn) [2-((S)-1-(2-fluorophenyl)ethylamino)-5-methyl-5-(pyridin-4-yl)thiazol-4(5H)-one] belongs less than 20 nM; to `C[C@H](NC1=NC(=O)C(C)(c2ccncc2)S1)c1ccc(F)cc1` (stereo partly drawn) [2-((S)-1-(4-fluorophenyl)ethylamino)-5-methyl-5-(pyridin-4-yl)thiazol-4(5H)-one], less than 20 nM; to `CC(C)C1(C)SC(N[C@@H](C)C2CCCCC2)=NC1=O` (stereo partly drawn) [2-((S)-1-cyclohexylethylamino)-5-isopropyl-5-methylthiazol-4(5H)-one], less than 20 nM.
As for `O=C1N=C(NCC2CCCCC2)SC1[C@H]1CCOC1` (stereo partly drawn) [2-(cyclohexylmethylamino)-5-(S)-tetrahydrofuran-3-yl)thiazol-4(5H)-one], the concentration for half-maximal inhibition (IC50) is less than 20 nM.
The same measure, in the same setting: the result for `CC1([C@H]2CCOC2)SC(NCC2CCCCC2)=NC1=O` (stereo partly drawn) [2-(cyclohexylmethylamino)-5-methyl-5-((S)-tetrahydrofuran-3-yl)thiazol-4(5H)-one] reads less than 20 nM.
`O=C1N=C(Nc2ccccc2F)SC1C1CCCC1` (centres unmarked) [5-cyclopentyl-2-(2-fluorophenylamino)thiazol-4(5H)-one] returned a half-inhibitory concentration (IC50) of less than 20 nM.
On the same count and under the same terms, to `CCC1(C)SC(NC23CC4CC(CC(C4)C2)C3)=NC1=O` (centres unmarked) [5-ethyl-5-methyl-2-(tricyclo[3.3.1.1˜3,7˜]dec-1-ylamino)-1,3-thiazol-4(5H)-one] belongs less than 20 nM.
`CC1(c2ccncc2)SC(Nc2ccccc2C(F)(F)F)=NC1=O` (centres unmarked) [5-methyl-5-(pyridin-4-yl)-2-(2-(trifluoromethyl)phenylamino)thiazol-4(5H)-one] displayed a half-maximal inhibitory concentration (IC50) of less than 20 nM.
The same measure, in the same setting: the result for `CC(C)[C@@]1(C)SC(Nc2ccccc2Cl)=NC1=O` [(5R)-2-((2-chlorophenyl)amino)-5-methyl-5-(1-methylethyl)-1,3-thiazol-4(5H)-one] reads less than 20 nM; that for `C[C@@]1(c2ccccc2)SC(Nc2ccccc2Cl)=NC1=O` [(5S)-2-((2-chlorophenyl)amino)-5-methyl-5-phenyl-1,3-thiazol-4(5H)-one], less than 20 nM.
On the same count and under the same terms, to `CO[C@@H]1CCC[C@@]2(C1)SC(NC1CCCCCCC1)=NC2=O` [(5S,7R)-2-(cyclooctylamino)-7-(methyloxy)-1-thia-3-azaspiro[4.5]dec-2-en-4-one] belongs less than 20 nM.
